Measurements: US7947307B2, “Methods and compositions for imaging” (Mount Sinai School of Medicine of New York University, priority 2004, dated 2011)
Like-named read-outs stand apart in the source and are kept apart here.

Columns and labels:
[1] = cited from earlier work
[2] = cited from earlier work; remark: listed apart in the source
[3] = cited from earlier work; remark: listed apart in the source
[4] = system: elicited peritoneal macrophages isolated from apoE-/- mice; test: Cholesterol efflux assay in cholesterol-loaded elicited peritoneal macrophages; format: cell-based, mouse; settings: 1.5 μM
Experimental: Cholesterol efflux assays. Human apo A-I was prepared as described before (25). Low density lipoprotein (LDL, 1.019<density<1.063 g/mL) and subfraction 3 of high density lipoprotein (HDL3, 1.125<density<1.21 g/mL) were isolated by sequential ultracentrifugation of human plasma. Lipoproteins were extensively dialyzed against phosphate buffered saline (PBS) and protein content measured with a CBQCA Protein Quantitation Kit (Molecular Probes, Eugene, Oreg.). The quality and purity of the lipoprotein preparations was confirmed by SDS-PAGE by the identification of appropriate apolipoproteins. Acetylated LDL (AcLDL) was prepared according to (26). Dulbeco's Modified Eagle medium (DMEM), L-glutamine, Penicillin-Streptomycin solutions, fetal bovine serum (FBS), and PBS were purchased from the Invitrogen Corporation (Carlsbad, Calif.). […]
For measurement of cholesterol efflux, aliquots of the media were collected at 6 and 18 h, and tritium cpm measured by scintillation counting. […] Free and esterified cholesterol content was measured prior to and after efflux under the various treatment conditions. After extraction of lipids, cells were lysed with 0.2 N NaOH and protein content determined by Lowry assay. Total cholesterol and free cholesterol were determined by using kits from Roche Applied Science. Cholesteryl ester content was determined by subtracting free cholesterol from total cholesterol.

[5] = mouse; cited from earlier work
[6] = concentration 1M (values in parentheses)

Row | Compound | Viscosity ([1]; concentration 0.5M) [cP] | Viscosity [1, 6] | Osmolality ([2]; concentration 0.5M) [osmol/kg] | Osmolality [2, 6] | r1, 0.5 T 37° C. [3] [mM⁻¹ s⁻¹] | cholesterol efflux to HDL ([4]; [3H]cholesterol-AcLDL loaded macrophages with F-1394, acceptor HDL3 50 μg/mL) | cholesterol efflux to apoA-I ([4]; [3H]cholesterol-AcLDL loaded macrophages with F-1394, acceptor apoA-I 50 μg/mL) | Viscosity ([1]; concentration 0.01M) [cP] | Osmolality ([2]; concentration 0.01M) [osmol/kg] | t1/2 in the circulation [5]
1 | O=C([O-])CN1CCN(CC(=O)[O-])CCN([C@H](CO)[C@H](O)CO)CCN(CC(=O)[O-])CC1.[Gd+3] (racemic) [Gadobutrol, Gd-DO3A-butrol] | 1.4 | (3.7) cP | 0.57 | (1.39) osmol/kg | 3.6 |  |  |  |  | 
2 | O=C(Nc1ccccc1)c1cc([N+](=O)[O-])ccc1Cl [GW9662] |  |  |  |  |  | did not affect | did not affect |  |  | 
3 | CNC[C@H](O)[C@@H](O)[C@H](O)[C@H](O)CO.CNC[C@H](O)[C@@H](O)[C@H](O)[C@H](O)CO.O=C([O-])CN(CCN(CC(=O)[O-])CC(=O)O)CCN(CC(=O)O)C(COCc1ccccc1)C(=O)[O-].[Gd+3] (centres unmarked) [Gadobenate, Gd-BOPTA] | 5.3 |  | 1.97 |  | 4.4 |  |  |  |  | 
4 | CNC(=O)CN(CCN(CCN(CC(=O)[O-])CC(=O)NC)CC(=O)[O-])CC(=O)[O-].[Gd+3] [Gadodiamide, Gd-DTPA-BMA] | 1.4 | (3.9) cP | 0.79 | (1.90) osmol/kg | 3.9 |  |  |  |  | 
5 | CNC[C@H](O)[C@@H](O)[C@H](O)[C@H](O)CO.CNC[C@H](O)[C@@H](O)[C@H](O)[C@H](O)CO.O=C([O-])CN(CCN(CC(=O)[O-])CC(=O)O)CCN(CC(=O)[O-])CC(=O)O.[Gd+3] [Gadopenetate, Gd-DTPA] | 2.9 |  | 1.96 |  | 3.8 |  |  |  |  | 
6 | O=C([O-])CN1CCN(CC(=O)[O-])CCN(CC(=O)[O-])CCN(CC(=O)[O-])CC1.[Gd+3] [Gadoterate, Gd-DOTA] | 2.0 | (11.3) cP | 1.35 | (4.02) osmol/kg | 3.6 |  |  |  |  | 
7 | Cc1[nH+]cc(COP(=O)([O-])[O-])c(CN(CCN(CC(=O)[O-])Cc2c(COP(=O)([O-])O)c[nH+]c(C)c2O)CC(=O)[O-])c1O.[Mn].[Na+].[Na+].[Na+] [Mangafodipir, Mn-DPDP] |  |  |  |  | 1.9 |  |  | 0.7 | 0.29 | 
8 | Gd-DTPA-BMEA [Gadoversetamide] | 2.0 |  | 1.11 |  | 4.7 |  |  |  |  | 
9 | Gd-HPDO3A [Gadoteridol] | 1.3 | (3.9) cP | 0.63 | (1.91) osmol/kg | 3.7 |  |  |  |  | 
10 | HDL-apoAI: apolipoprotein AI of HDL |  |  |  |  |  |  |  |  |  | roughly 10 h
